From patent publication US10071103B2, “Treatments for resistant acne” (VYOME BIOSCIENCES PVT. LTD., priority 2014, dated 2018)
Values after ≈ are worked out from the molar mass of the structure shown. “Also recorded” adds a separate entry of the source. Like-named read-outs stand apart in the source and are kept apart here.

Columns and labels:
IL-1β = experiment: P. acnes-induced IL-1β release in THP-1 cells (ELISA); assay type: cell-based; details: 25 μg/ml, 100% = P. acnes induced cells
Procedure: Method: Preparation of Stimulant for Inflammation: P. acnes culture suspension was prepared in PBS and the cell number in the suspension was adjusted to approximately 5×10^8 CFU/ml by measuring the cell density using a Densimat. The bacterial suspension was then heat killed at 80° C. for 30 min and stored at −80° C. until further use.
Cells were seeded in a 96-well format (2×10^5 THP-1 cells per well) in media containing 10% FBS. The cells were stimulated to induce inflammatory cytokines using 3 McFarland equivalent heat-killed P. acnes. Cells in control wells were treated with PBS. One hour after induction with P. acnes, test agents were added to the induced cells at appropriate concentrations to be tested (compound 91 at 25 μg/ml). The plates were incubated at 37° C. for 24 hours. After 24 h, the plates were centrifuged to pellet the cells and the supernatants were collected. The cell culture supernatants thus obtained were analyzed for levels of cytokines (IL-1α, IL-1β, IL-6 and IL-8) by ELISA using R&D Systems kits for individual cytokines following the manufacturer's instructions.

P. acnes MTCC 1951 = experiment: MIC by micro broth dilution (Alamar blue), clindamycin-susceptible P. acnes; assay type: cell-based, Propionibacterium acnes; details: for MIC: Cutibacterium acnes, MTCC1951; for Activity / bacterial killing, dose response curve (in words): clindamycin-susceptible MTCC 1951
Procedure: The plates were incubated at 37° C. for 48 h under anaerobic condition for P. acnes and 37° C. for 24 h for S. aureus The plates were read under Bio-Rad plate reader at 595 nm for optical density to generate the dose-response curves. The MIC of the test compound was recorded by addition of Alamar blue dye.
P. acnes (MTCC 3297, MTCC 1951& CCARM 9010) are cultured in Brain Heart Infusion (BHI) Broth at 37° C. for 48-72 h under anaerobic condition. The test compounds/formulations are initially diluted with suitable solvent and further diluted with BHI broth to get the required concentrations. Samples (100 μl) of different concentrations (prepared by serial dilution) are added to 96-well plate. To the wells, 100 μl of P. acnes BHI broth culture is added [culture turbidity adjusted against 0.5 McFarland standard (approx 1.5×10^8), and further diluted 100-fold with sterile BHI broth]. In addition Growth Control and Sterility Control are created using 100 μl each of P. acnes BHI broth culture and plain BHI broth, respectively.
Plates are incubated at 37° C. for 48-72 hrs under anaerobic condition. The plate is read under Bio-Rad plate reader @ 595 nm for optical density to generate the dose-response curves. The MIC of the test compound is recorded by addition of Alamar blue dye.
BHI broth and BHI agar media were prepared as per the manufacturer's instruction and autoclaved at 121° C. for 15 minutes. […] For MIC determination testing, gels are dissolved in the solvent and further diluted with BHI broth. Then, 96 wells plate are filled with 100 μl of BHI broth containing drug with different concentration to get the final concentrations of 0.06, 0.13, 0.25, 0.5, 1 and 2 μg/ml in different lanes (lane 1 to lane 6). Remaining lanes of the 96 well plate are used as growth control and sterility control. Finally, P. acnes culture suspension (approx 1.5×10^6) is added in all the wells except sterility control wells and plate is incubated at 37° C. for 48-72 h under anaerobic condition. At the end of 72 h, Alamar blue solution (20 μl) is added into the wells and incubated at 37° C. for 2 h. Plate is visualized for bacterial inhibitions and MIC values of the tested samples are determined. […]

E. coli DNA gyrase = target: T1, E. coli DNA gyrase (Escherichia coli, UniProt P0AES4+P0AES6); experiment: DNA gyrase super-coiling activity assay (Topogen kit, relaxed pHOT1 plasmid); assay type: biochemical; details: for Super-coiled band (percentage of DNA super-coiling): untreated control 100%; for Inhibition of super-coiling activity of DNA gyrase (in words): 1 μM and 2.5 μM
T1 construct: purchased Topogen Inc
Procedure: DNA super-coiling activity was assayed using DNA gyrase assay kit (Topogen Inc.) with relaxed pHOT1 E. coli plasmid DNA according to manufacturer's protocol. The standard reaction mixture (20 μl) contained 35 mM Tris-HCl (pH 7.5), 24 mM KCl, 4 mM MgCl2, 2 mM dithiothreitol, 1.8 mM spermidine, 1 mM ATP, 6.5% glycerol, 0.1 mg/ml bovine serum albumin (BSA), 10 μg/ml relaxed pHOT1 plasmid DNA and 1 U of DNA gyrase. The reaction mixture was incubated at 37° C. for 1 h in presence of selected compounds/fluoroquinolone at different concentrations. The reaction was terminated by addition of ⅕ volume of loading dye (4 μl) followed by proteinase K (50 μg/ml) and again incubated at 37° C. for half an hour. 20 μl chloroform/isoamyl alcohol (24:1) was added to each tube and vortexed briefly. Thereafter, the blue aqueous phase was separated out and analyzed by 1% agarose gel electrophoresis. The gel was stained by ethidium bromide for half an hour and destained with water for 15 mins. The gel was then visualized in a trans-illuminator and photographed.

T1 sequence (P0AES4 whole entry, one chain of several): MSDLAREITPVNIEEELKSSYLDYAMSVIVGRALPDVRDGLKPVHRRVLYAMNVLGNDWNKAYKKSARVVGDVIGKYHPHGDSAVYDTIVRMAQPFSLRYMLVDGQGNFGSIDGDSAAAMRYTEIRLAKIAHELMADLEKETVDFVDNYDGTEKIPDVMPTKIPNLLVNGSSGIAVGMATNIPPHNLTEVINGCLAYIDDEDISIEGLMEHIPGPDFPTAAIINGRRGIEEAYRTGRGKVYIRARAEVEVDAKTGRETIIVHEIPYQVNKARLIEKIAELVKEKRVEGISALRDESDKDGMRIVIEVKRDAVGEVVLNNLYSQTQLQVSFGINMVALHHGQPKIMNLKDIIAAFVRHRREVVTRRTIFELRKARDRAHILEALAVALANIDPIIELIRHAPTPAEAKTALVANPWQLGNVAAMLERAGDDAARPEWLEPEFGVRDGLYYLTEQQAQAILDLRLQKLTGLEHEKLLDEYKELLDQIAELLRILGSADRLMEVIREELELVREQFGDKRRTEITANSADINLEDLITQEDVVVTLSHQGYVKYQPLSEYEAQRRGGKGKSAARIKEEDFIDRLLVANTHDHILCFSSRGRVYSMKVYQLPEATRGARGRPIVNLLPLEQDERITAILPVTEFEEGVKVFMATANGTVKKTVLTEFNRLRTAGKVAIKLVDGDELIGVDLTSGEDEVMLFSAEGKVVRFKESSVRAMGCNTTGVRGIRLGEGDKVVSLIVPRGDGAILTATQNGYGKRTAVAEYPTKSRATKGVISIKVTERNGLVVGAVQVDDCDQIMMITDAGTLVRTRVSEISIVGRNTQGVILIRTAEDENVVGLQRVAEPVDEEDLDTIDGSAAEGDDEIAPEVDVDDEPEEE

Cc1ncc([N+](=O)[O-])n1CC(O)CN1CCN(c2cc3c(cc2F)c(=O)c(C(=O)O)c2n3C(C)S2)CC1 (stereo not shown) [Compound 91, 6-Fluoro-7-{4-[2-hydroxy-3-(2-methyl-5-nitro-imidazol-1-yl)-propyl]-piperazin-1-yl}-1-methyl-4-oxo-4H-2-thia-8b-aza-cyclobuta[a]naphthalene-3-carboxylic acid]
Percentage reduction in P. acnes induced IL-1β release (IL-1β): 20.49% | Percentage reduction in P. acnes induced IL-1β release (IL-1β; listed as compound 91): 20-25% | MIC (P. acnes MTCC 1951; Table 7, against P. acnes, read-out: MIC): 0.2 µg/mL (≈ 0.376 µM) | MIC (P. acnes MTCC 1951; read-out: MIC Susceptible P. acnes (1951) strain): 0.2 µg/mL (≈ 0.376 µM) | Activity / bacterial killing, dose response curve (in words) (P. acnes MTCC 1951): highly efficacious bacterial killing profile | Activity / bacterial killing, dose response curve (in words) (P. acnes MTCC 1951; listed as compound 91): lower MIC value and faster bacterial killing profile | Super-coiled band (percentage of DNA super-coiling) (E. coli DNA gyrase; 0.25 μM): around 54.3% | Inhibition of super-coiling activity of DNA gyrase (in words) (E. coli DNA gyrase): best gyrase inhibiting activity; also recorded: greater efficacy | Inhibition of super-coiling activity of DNA gyrase (in words) (E. coli DNA gyrase; listed as compound 91): able to inhibit the super-coiling activity; also recorded: highly potent; also recorded: better efficacy; also recorded: most potent | Super-coiled band (percentage of DNA super-coiling) (E. coli DNA gyrase; 5 μM): about 2%
